Reference: the supplement of paper PMC11451515

Key:
NOMO1 [1] = test: AUC of viability dose-response curve (% viability x log10 dose units); higher = less sensitive; details: 48 h
In short: (§1)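 Leukemia cells adapted to each medium were seeded in 1536-well plates (500 or 1000 cells/well). They were dosed with library compounds in DMSO at 11 threefold doses, 47 μM to 0.79 nM, for 48 h at 37°C. CellTiter-Glo One luminescence was normalised per plate to DMSO and cell-free wells. Area under the curve was integrated by trapezoidal rule over log10 doses on a four-parameter log-logistic fit; curves exceeding full viability were scaled and curves failing quality control removed.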

SEM cells [2] = test: as above; details: 48 h
In short: as §1

P12-Ichikawa [3] = test: as above; details: 48 h
In short: as §1

NOMO1 [4] = test: cell viability relative to DMSO control; higher = less cytotoxic; details: RPMI 5 mM glucose + 10% FBS, 48 h
In short: (§2)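 NOMO1 or SEM (500 cells/well) or P12-Ichikawa (1000 cells/well) leukemia cells were adapted for at least four passages in each medium. They were seeded in 1536-well plates (5 μl) and pin-dosed with library compounds in DMSO over an 11-point threefold series, 47 μM to 0.79 nM. CellTiter-Glo One luminescence was read after 48 h at 37°C. Viability is the per-plate percentage relative to DMSO wells, with cell-free wells as background.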

SEM cells [5] = test: as above; details: 48 h
In short: as §2

P12-Ichikawa [6] = test: as above; details: 48 h
In short: as §2

C[C@H]1C[C@H]2[C@@H]3CCC4=CC(=O)C=C[C@]4(C)[C@@]3(F)[C@@H](O)C[C@]2(C)[C@@]1(O)C(=O)CO
Details	AUC of viability dose-response curve	cell viability [%]
NOMO1 [1], HPLM + 10% dialyzed FBS	429	–
NOMO1 [1], RPMI 5 mM glucose + 10% FBS	470	–
NOMO1 [1], RPMI 5 mM glucose + 10% dialyzed FBS	459	–
NOMO1 [4], 0.000781 µM	–	120
NOMO1 [4], 0.00234 µM	–	122
NOMO1 [4], 0.00702 µM	–	128
NOMO1 [4], 0.0211 µM	–	122
NOMO1 [4], 0.0632 µM	–	123
NOMO1 [4], 0.19 µM	–	133
NOMO1 [4], 0.569 µM	–	131
NOMO1 [4], 1.71 µM	–	135
NOMO1 [4], 5.12 µM	–	120
NOMO1 [4], 15.4 µM	–	120
NOMO1 [4], 46.1 µM	–	106
P12-Ichikawa [3], HPLM + 10% dialyzed FBS	362	–
P12-Ichikawa [3], RPMI 5 mM glucose + 10% FBS	322	–
P12-Ichikawa [3], RPMI 5 mM glucose + 10% dialyzed FBS	303	–
SEM cells [2], HPLM + 10% dialyzed FBS	358	–
SEM cells [2], RPMI 5 mM glucose + 10% FBS	338	–
SEM cells [2], RPMI 5 mM glucose + 10% dialyzed FBS	305	–

cell viability [%]
Details	HPLM + 10% dialyzed FBS	RPMI 5 mM glucose + 10% FBS	RPMI 5 mM glucose + 10% dialyzed FBS
P12-Ichikawa [6], 0.000781 µM	114	121	110
P12-Ichikawa [6], 0.00234 µM	119	126	119
P12-Ichikawa [6], 0.00702 µM	118	116	116
P12-Ichikawa [6], 0.0211 µM	109	108	101
P12-Ichikawa [6], 0.0632 µM	98.1	99.8	81.1
P12-Ichikawa [6], 0.19 µM	78.3	73.1	59.9
P12-Ichikawa [6], 0.569 µM	73.9	65.1	56
P12-Ichikawa [6], 1.71 µM	71.9	60.1	48.2
P12-Ichikawa [6], 5.12 µM	71	51.7	46
P12-Ichikawa [6], 15.4 µM	65.5	55.6	41.5
P12-Ichikawa [6], 46.1 µM	65.8	43.5	42.5
SEM cells [5], 0.000781 µM	86.1	101	108
SEM cells [5], 0.00234 µM	105	110	140
SEM cells [5], 0.00702 µM	101	106	114
SEM cells [5], 0.0211 µM	92.8	105	93.6
SEM cells [5], 0.0632 µM	99.5	91.6	87.1
SEM cells [5], 0.19 µM	78.5	67.3	72.6
SEM cells [5], 0.569 µM	68.9	66.7	72.3
SEM cells [5], 1.71 µM	27.5	26.4	24
SEM cells [5], 5.12 µM	67.1	69.6	53.2
SEM cells [5], 15.4 µM	31.3	22.8	23.9
SEM cells [5], 46.1 µM	66	64.4	74
